Where a name gives a salt, the structure may show the parent alone.
How the values were obtained:
Assay type in all cases: cell-based
[1] = test system: human monocytes stimulated with LPS; assay: Production of IL-1β, TNF-α and IL-6 in human monocytes stimulated with LPS (Luminex multiplex assay); conditions: 50 ng/ml LPS, MT8 10 or 30 µM, 18 hours
Method: (§1) LipoPoliSaccharide (LPS) is an endotoxin that induces a strong immune reaction. In the presence of LPS, immune system cells such as monocytes and dendritic cells react by producing high amounts of inflammatory cytokines such as IL-1β, TNFα and IL-6. To test the ability of MT8 to modulate the production of these cytokines, human monocytes (isolated from buffy coat using anti-CD14 antibody) and human monocytes-derived dendritic cells (MDCs) were cultured at 10^6 cells/ml in complete medium and stimulated with 50 ng/ml of LPS, in the presence or absence of MT8 at a concentration of 10 or 30 µM. After 18 hours of incubation, the supernatants of both cell types were collected and the production of IL-1β, TNF-α, and IL-6 was evaluated by Luminex multiplex assay technology. […] In particular, MT8 was able to decrease the amount of IL-1β in a dose-dependent manner in both monocytes and dendritic cells. In the latter, the reduction recorded was over 50% (FIG. 1B), while in monocytes the reduction was about 17% (FIG. 1A). In any case, this reduction is statistically significant. Similar results were obtained regarding the production of TNF-α which, in the presence of MT8, is reduced by about 17% in monocytes (FIG. 1C) and by 19% in dendritic cells (FIG. 1D). Again, the reduction observed in the presence of MT8 is statistically significant. […] Also, in the latter case the reduction is statistically significant.

[2] = test system: human dendritic cells stimulated with LPS; assay: Production of IL-1β, TNF-α and IL-6 in human monocytes-derived dendritic cells stimulated with LPS (Luminex multiplex assay); conditions: 50 ng/ml LPS, MT8 10 or 30 µM, 18 hours
Method: as §1

ADAR1 = assay: Activation of the homodimeric complex of ADAR1 in HEK-293 TrkA cells (immunoprecipitation, Western Blot, densitometry); conditions: serum-free 18 hours, 10 µM MT8, 60 minutes, FIG. 2
Method: In order to study the effect of the MT8 compound on the ADAR1 enzyme, HEK-293 TrkA cells were cultured in serum-free medium for 18 hours and incubated with or without 10 µM of MT8 for another 60 minutes. The cells were then lysed in RIPA buffer (50 mM Tris-HCI, pH 7.4; 150 mM NaCl; 2 mM EDTA; 1 mM NaF; 1 mM sodium orthovanadate, 1% NP-40) and the proteins immunoprecipitated with Anti-ADAR1 antibody and subjected to biochemical analysis by Western Blot. Briefly, 500 µg of total protein was immunoprecipitated using a specific Anti-ADAR1 antibody. The immunoprecipitated product was loaded onto polyacrylamide gel and transferred onto the PVDF membrane. The membrane was then incubated with specific anti-ADAR1 antibodies for signal detection. The analysis allowed to highlight the presence of homodimeric complexes ADAR1/ADAR1 and of the monomeric forms of ADAR1 p150 and p110. The quantitative determination of the homodimer complex of ADAR1, performed by densitometry, was expressed as the ratio between the density of the band of the homodimer ADAR1/ADAR1 and that of the monomer ADAR1 p110.

miR-101 [3] = assay: Expression of miR-101 in human monocytes stimulated with LPS (Real-time PCR)
Method: In order to study the effect of MT8 on the activity of miR-101 in the pro-inflammatory setting, human monocytes isolated from buffy coat were stimulated with 1 µg/ml of LPS in the presence or absence of MT8 at the final concentration of 1 0 µM. After 60 minutes, the cells were lysed in TRIzol for the extraction of total RNA, which was then used for the quantification of miR-101 by Real-time PCR. […] The quantitative determination was performed using the 5 s ribosomal RNA gene as housekeeping and the relative increase calculated applying the 2^-ΔCt method.

miR-101 [4] = assay: miR-101 expression levels in HEK-293 TrkA cells following ADAR1 knock-down (Real-time PCR); conditions: 10 µM MT8, 60 minutes, FIG. 4
Method: In order to study the effect of MT8 on miR-101 regulatory mechanisms under metabolic stress conditions, HEK-293 TrkA cells were transfected with ADAR1-specific siRNA or control siRNA (scrambled) at the final concentration of 50 nM. After 48 hours, the cells were incubated in serum-free medium for 18 hours and stimulated with MT8 at a concentration of 10 µM for a further 60 minutes. The cells were lysed with TRIzol for the extraction of total RNA, used for the assay of miR-101 by Real Time PCR. The quantitative determination of miR-101 was performed using the 5 s ribosomal RNA gene as the housekeeping gene and the relative increase calculated applying the 2^-ΔCt method.

Question: `O=C(O)[C@H]1O[C@H]2O[C@@H]1C(=O)N(Cc1ccccc1)[C@@H]2Cc1ccccc1` [MT8, (1S, 4R, 5R, 7S) -3,4-dibenzyl-2-oxo-6,8-dioxa-3-azabicyclo[3.2.1]octane-7-carboxylic acid L-lysine Salt] was tested. Which “reduction of IL-1β production” value ([1]; FIG. 1A) did it give?
Answer: about 17%

Question: And the “reduction of TNF-α production” value ([1]; FIG. 1C)?
Answer: about 17%

Question: And the “reduction of IL-6 production” value ([1]; FIG. 1E)?
Answer: about 70%

Question: And the “reduction of IL-1β production” value ([2]; FIG. 1B)?
Answer: over 50%

Question: What about the “reduction of TNF-α production” value ([2]; FIG. 1D) of the same compound?
Answer: 19%

Question: What about the “reduction of IL-6 production” value ([2]; FIG. 1F) of the same compound?
Answer: about 65%

Question: And the “homodimeric (active) form of ADAR1, ratio homodimer ADAR1/ADAR1 to monomer ADAR1 p110, compared to untreated cells” value (ADAR1)?
Answer: high increase

Question: What about the “time of exposure until decrease of miR-101” value (miR-101 [3]; cellular and tissue systems exposed to MT8) of the same compound?
Answer: ≤ 1 h

Question: And the “miR-101 expression level compared to monocytes treated with LPS alone” value (miR-101 [3]; human monocytes, 1 µg/ml LPS, MT8 1 0 µM, 60 minutes, FIG. 3)?
Answer: strong decrease

Question: And the “ability to decrease miR-101 expression in cells transfected with specific siRNA for ADAR1” value (miR-101 [4]; ADAR1-specific siRNA 50 nM)?
Answer: not

Question: What about the “miR-101 expression level in scrambled siRNA-transfected cells” value (miR-101 [4]; control (scrambled) siRNA 50 nM) of the same compound?
Answer: marked decrease

From patent US20230165870A1, “6,8-dioxa-3-azabicyclo[3.2.l]Octane Carboxylic Acids And Their Derivatives For Use In The Treatment Of Inflammations” (MINERVA S.R.L., priority 2020, published 2023)
